Patent publication US11001829B2, “Functional screening with optimized functional CRISPR-Cas systems” (The Broad Institute, Inc., priority 2014, dated 2021)

How the values were obtained:
Factor VII = details: LNP siRNA systems containing the lipid; cited from earlier work
[1] = test system: A375 melanoma cell line (BRAF V600E); details: cited from earlier work
DNA = experiment: indel formation by double nicking with sgRNA pairs; format: cell-based; details: substitution of Cas9n in a given sgRNA pair
From the text: Aspects of the invention relate to the expression of the gene product being decreased or a template polynucleotide being further introduced into the DNA molecule encoding the gene product or an intervening sequence being excised precisely by allowing the two 5′ overhangs to reanneal and ligate or the activity or function of the gene product being altered or the expression of the gene product being increased. In an embodiment of the invention, the gene product is a protein. Only sgRNA pairs creating 5′ overhangs with less than 8 bp overlap between the guide sequences (offset greater than −8 bp) were able to mediate detectable indel formation. […] Nonetheless, a pair of sgRNAs that will generate a 5′ overhang with Cas9n should in principle generate the corresponding 3′ overhang instead, and double nicking. […] Accordingly, in some embodiments, a recombination template is also provided. A recombination template may be a component of another vector as described herein, contained in a separate vector, or provided as a separate polynucleotide. In some embodiments, a recombination template is designed to serve as a template in homologous recombination, such as within or near a target sequence nicked or cleaved by a CRISPR enzyme as a part of a CRISPR complex. […]

MS2 RNA aptamer = details: cited from earlier work
human MYOD1 = experiment: MYOD1 activation in HEK293FT cells, qPCR; format: cell-based
Protocol: (§1) Human HEK293FT cells were maintained in high-glucose DMEM with GlutaMax and sodium pyruvate (Life Technologies) supplemented with 10% heat-inactivated characterized HyClone fetal bovine serum (Thermo Scientific) and 1% penicillin/streptomycin (Life Technologies). Cells were passaged daily at a ratio 1 to 2 or 1 to 2.5. For MS2/dCas9 activator experiments, 20,000 HEK293FT cells were plated in 100 μL of culture medium in poly-d-lysine coated 96-well plates (BD biosciences). […]
(§2) Total plasmid mass per well was 0.3 micrograms. […] Gene expression levels were quantified by using Taqman qPCR probes (Life technologies) and Fast Advanced Master Mix (Life Technologies). ASCL1 and MYOD1 expression levels were calculated relative to GAPDH expression level. Fold gene expression levels were determined by comparison to samples transfected with GFP plasmid only. […]
(§3) A total plasmid mass of 0.3 ug/well was transfected using 1.5 uL/well Lipofectamine 2000 (Life Technologies) according to the manufacturer's instructions. […] Relative RNA expression levels were quantified by reverse transcription and quantitative PCR (qPCR) using Taqman qPCR probes (Life technologies) and Fast Advanced Master Mix (Life Technologies). qPCR was carried out in 5 uL multiplexed reactions and 384-well format using the LightCycler 480 Instrument II. […]

human ASCL1 = experiment: ASCL1 activation in HEK293FT cells, qPCR; format: cell-based
Protocol: as §1, §2, §3

Neurog2 = Neurog2 upregulation in Neuro-2a cells, qRT-PCR; format: cell-based
Protocol: 120,000 cells were plated in each well of a 24-well plate 18-20 h before transfection. Cells were transfected with Lipofectamine transfection reagent (Life Technologies) according to the manufacturer's instructions.
RNA was extracted using the RNeasy kit (Qiagen) according to manufacturer's instructions and […] of RNA per sample was reverse-transcribed using qScript (Quanta Biosystems). Relative mRNA levels were measured by reverse transcription and quantitative PCR (qRT-PCR) using TaqMan probes specific for the targeted gene as well as GAPDH as an endogenous control (Life Technologies). ddCt analysis was used to obtain fold-changes relative to negative controls transfected with GFP only.
A minimal hairpin aptamer capable of binding to the bacteriophage coat protein MS2, which is known to be capable of binding MS2 through strong sequence- and structure-specific interactions in mammalian cells^18,19, to incorporate into tetraloop and stem-loop 2 (FIG. 27b) was chosen. Tests were performed to evaluate whether MS2-mediated recruitment of VP64 to the tetraloop and stem-loop 2 could mediate transcriptional up-regulation more efficiently than a dCas9-VP64 fusion alone. Aptamer-mediated recruitment of MS2-VP64 to either tetraloop (sgRNA 1.1) or stem-loop 2 (sgRNA 1.2) mediated 3- and 5-fold higher levels of Neurog2 up-regulation than a dCas9-VP64 fusion (sgRNA 1.0), respectively.

CXCR4, CACNAC1A = experiment: repression by non-coding Alu loops in the sgRNA with dCas9, HEK293FT, qPCR; format: cell-based, human; details: in complex with dCas9
Protocol: The non-coding Alu RNA has previously been described as a transacting repressor interfering with RNA polymerase II in mammalian cells. In addition, a minimal loop required for repression has been identified (sciencedirect.com/science/article/pii/S1097276508000026). Applicants designed guides with different sites of incorporation of the truncated Alu loop (and in combination with PP7 loops). Sequences for these sgRNA backbones are listed below: […]
A total plasmid mass of 0.3 μg/well was transfected using 0.6 μL/well Lipofectamine 2000 (Life Technologies) according to the manufacturer's instructions. […] Relative RNA expression levels were quantified by reverse transcription and quantitative PCR (qPCR) using TaqMan qPCR probes (Life Technologies) and Fast Advanced Master Mix (Life Technologies). qPCR was carried out in 5 μL multiplexed reactions and 384-well format using the LightCycler 480 Instrument II. Data was analyzed by the ΔΔCt method: target Ct values (FAM dye) were normalized to GAPDH Ct values (VIC dye), and fold changes in target gene expression were determined by comparing to GFP-transfected experimental controls.

## 1,2-dilinoleyloxy-keto-N,N-dimethyl-3-aminopropane [DLinKDMA]
Factor VII
  gene silencing potency, rank order: DLinKC2-DMA>DLinKDMA>DLinDMA>>DLinDAP

## CCCCC/C=C\C/C=C\CCCCCCCC(=O)OCC(CN(C)C)OC(=O)CCCCCCC/C=C\C/C=C\CCCCC (centres unmarked) [DLinDAP, 1,2-dilineoyl-3-dimethylammonium-propane]
Factor VII
  gene silencing potency, rank order: DLinKC2-DMA>DLinKDMA>DLinDMA>>DLinDAP

## CCCCC/C=C\C/C=C\CCCCCCCCOCC(CN(C)C)OCCCCCCCC/C=C\C/C=C\CCCCC (centres unmarked) [DLinDMA, 1,2-dilinoleyloxy-3-N,N-dimethylaminopropane]
Factor VII
  gene silencing potency, rank order: DLinKC2-DMA>DLinKDMA>DLinDMA>>DLinDAP

## CCCCC/C=C\C/C=C\CCCCCCCCC1(CCCCCCCC/C=C\C/C=C\CCCCC)OCC(CCN(C)C)O1 (centres unmarked) [DLinKC2-DMA, 1,2-dilinoleyl-4-(2-dimethylaminoethyl)-[1,3]-dioxolane]
Factor VII
  gene silencing potency, rank order: DLinKC2-DMA>DLinKDMA>DLinDMA>>DLinDAP

## CCCS(=O)(=O)Nc1ccc(F)c(C(=O)c2c[nH]c3ncc(Cl)cc23)c1F [PLX4720]
[1]
  sensitivity of A375 cells, in words: naturally sensitive

## H840A: Cas9 with the H840A mutation in the HNH domain
DNA
  indel formation, in words: no indel formation is observed

## N55K mutant of the MS2 bacteriophage coat protein: MS2 variant, N55K mutant
MS2 RNA aptamer
  binding affinity, in words: higher binding affinity than wild type MS2

B1: sgRNA 2.0: sgRNA scaffold in which the tetraloop and stem-loop 2 sequences have been replaced by an MS2 binding loop (nucleic acid)
guide: NNNNNNNNNNNNNNNNNNNNGUUUUAGAGCUAGGCCAACATGAGGATCACCCATGTCTGCAGGGCCUAGCAAGUUAAAAUAAGGCUA
modifications: /note=“Description of Combined DNA/RNA Molecule Synthetic oligonucleotide”; modified_base (1)..(20) a, c, t, g, unknown or other
Human MYOD1
  MYOD1 activation, comparison in words: more potent than either of the 3′ MS2 sgRNA architectures
Human MYOD1; MYOD1
  levels of transcription activation relative to sgRNA+2×MS2: 8.5 fold
Human ASCL1
  ASCL1 activation, comparison in words: more potent than either of the 3′ MS2 sgRNA architectures
Human ASCL1; ASCL1
  levels of transcription activation relative to sgRNA+2×MS2: 14 fold
Neurog2; aptamer-mediated recruitment of MS2-VP64, with dCas9
  levels of Neurog2 up-regulation relative to a dCas9-VP64 fusion (sgRNA 1.0): 12 fold
Neurog2; with dCas9-vp64 and MS2-vp64, compared with regular guide and dCas9-vp64
  target gene upregulation (Neurog2), in words: much higher target gene upregulation compared to the previous design

B2: minimal non-coding Alu-loops at the tetraloop and stem-loop 2: sgRNA backbone with truncated Alu loop at tetraloop and stem-loop 2 (nucleic acid)
guide: GTTTTAGAGCTAGAGGCAGGAGAATGGCGTGAACCCGGGAGGTGGCCGAGATCGCTCCAGCCTGGGTGACAGAGCGAGACTCTGTCTCTAGCAAGTTAAAATAAGGCTAGTCCGTTATCAACTTGAGGCAGGAGAATGGCGTGAACCCGGGAGGTGGCCGAGATCGCTCCAGCCTGGGTGACAGAGCGAGACTCTGTCTCAAGTGGCACCGAGTCGGTGCTTTTTTT
CXCR4, CACNAC1A
  repression of target gene expression, in words: able to repress target gene expression in complex with dCas9
